How the values were obtained:
tumor angiogenesis = details: hamster cheek pouch, under certain conditions; cited from earlier work
[1] = cited from earlier work
angiogenesis = experiment: Steroids tested with heparin and heparin fragments against angiogenesis
Description: Deltacortisone has not previously been disclosed for use in combination with heparin fragments generally, or pentosan polysulfate.

[2] = test system: transitional cell carcinoma; experiment: Subcutaneous transitional cell carcinoma in mice, oral or injected therapy; format: in vivo
Description: 100 mice injected with live transitional cell carcinoma subcutaneously, and were grown to a maximum size of 2 cm prior to therapy. The mice were given SP₅₄ and hydrocortisone orally and by injection. The composition was orally administered with SP₅₄ at 0.06 mg/ml and hydrocortisone at 0.5 mg/ml in drinking water. In others the composition was injected with 0.66 mg/ml SP₅₄ and hydrocortisone at 3 mg/ml twice daily, 0.55 ml.

SMILES	overcoming angiogenesis (angiogenesis)	also measured
C[C@H]1C[C@@H]2[C@H]([C@@H](O)C[C@@]3(C)[C@H]2CC[C@]3(O)C(=O)CO)[C@@]2(C)C=CC(=O)C=C12 [6 alpha-methyl-prednisolone]	–	effect on tumor angiogenesis (tumor angiogenesis): partially suppressed
C[C@]12C=CC(=O)C=C1CC[C@@H]1[C@@H]2C(=O)C[C@@]2(C)[C@H]1CC[C@]2(O)C(=O)CO [Deltacortisone]	–	water solubility [1]: not water soluble to a sufficiently substantial extent
CC(C)CCC[C@@H](C)[C@H]1CC[C@H]2[C@@H]3CC=C4C[C@@H](O)CC[C@]4(C)[C@H]3CC[C@]12C [cholesterol]	ineffective	–
C[C@]12CCC(=O)C=C1CC[C@@H]1[C@@H]2CC[C@@]2(C)[C@H]1CC[C@]2(O)C(=O)CO [cortexolone]	ineffective	–
C[C@]12C[C@H](O)[C@H]3[C@@H](CCC4=CC(=O)CC[C@@]43C)[C@@H]1CC[C@@H]2C(=O)CO [corticosterone]	ineffective	–
C[C@]12CCC(=O)C=C1CC[C@@H]1[C@@H]2[C@@H](O)C[C@@]2(C)[C@H]1CC[C@]2(O)C(=O)CO [hydrocortisone]	–	effect on tumor ([2]; SP₅₄ eliminated from treatment): regression of tumor; lung metastasis ([2]; mice with transitional cell carcinoma after treatment): found to have lung metastasis
CC(=O)[C@H]1CC[C@H]2[C@@H]3CC=C4C[C@@H](O)CC[C@]4(C)[C@H]3CC[C@]12C [pregnenolone]	ineffective	–
CC(=O)[C@H]1CC[C@H]2[C@@H]3CCC4=CC(=O)CC[C@]4(C)[C@H]3CC[C@]12C [progesterone]	ineffective	–
C[C@]12CC[C@H]3[C@@H](CCC4=CC(=O)CC[C@@]43C)[C@@H]1CC[C@@H]2O [testosterone]	ineffective	–
